Columns and labels:
[1] = Free fraction by equilibrium dialysis, rat plasma; format: in vitro ADME; details: equilibrium dialysis 37°C 5 h, mean ± S.E.M., n = 3
Procedure: The bidirectional permeability (Papp) of SMB-1 was examined in an MDCK cell system expressing human MDR1 [ABCB1, P-glycoprotein (P-gp)] as described previously. Permeation of the test compound from apical (A) to basal (B) direction or B to A direction was determined in triplicate over a 150-min incubation at 37°C. The efflux ratio was calculated as the ratio between Papp (B to A) and Papp (A to B). Free fraction of SMB-1 was determined using a standard equilibrium dialysis methodology with freshly isolated rat brain homogenate or plasma. Equilibrium dialysis was performed by incubating at 37°C for 5 h in triplicates.

[2] = biological target: T1, KV7.4-W242L (Homo sapiens, UniProt P56696, W242L); test: Two-electrode voltage-clamp of mutant KV7.4-W242L in Xenopus laevis oocytes; format: cell-based
T1 construct: expressed in transfected cells; host or cells: Xenopus laevis oocytes injected with cRNA (pGEM-HE vector)
T1 sequence (P56696 1-695 W242L): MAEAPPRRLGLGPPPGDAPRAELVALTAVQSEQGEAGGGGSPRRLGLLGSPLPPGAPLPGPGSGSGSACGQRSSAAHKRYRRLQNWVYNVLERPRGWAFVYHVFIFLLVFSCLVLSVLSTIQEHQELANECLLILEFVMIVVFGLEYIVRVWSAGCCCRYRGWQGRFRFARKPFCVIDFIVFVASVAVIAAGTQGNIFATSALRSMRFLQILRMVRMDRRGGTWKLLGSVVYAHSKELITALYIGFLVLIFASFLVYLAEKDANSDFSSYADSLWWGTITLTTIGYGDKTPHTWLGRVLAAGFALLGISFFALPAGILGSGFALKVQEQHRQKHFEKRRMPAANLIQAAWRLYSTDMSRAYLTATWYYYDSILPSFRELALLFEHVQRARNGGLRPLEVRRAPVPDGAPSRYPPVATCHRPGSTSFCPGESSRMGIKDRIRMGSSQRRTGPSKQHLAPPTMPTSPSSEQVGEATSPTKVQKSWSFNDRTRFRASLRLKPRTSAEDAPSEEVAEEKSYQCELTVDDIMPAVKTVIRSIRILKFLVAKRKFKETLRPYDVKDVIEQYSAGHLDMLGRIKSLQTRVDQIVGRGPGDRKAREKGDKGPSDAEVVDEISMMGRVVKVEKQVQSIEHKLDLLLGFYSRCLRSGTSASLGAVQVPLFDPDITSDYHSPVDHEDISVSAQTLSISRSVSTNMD
Procedure: Point mutations were introduced using mutated oligonucleotide extension (PfuTurbo Polymerase, Stratagene, La Jolla, CA, USA) from a plasmid template harboring the cDNA of interest, digested with DpnI (Fermentas, St. Leon-Roth, Germany) and transformed into E.coli XL1 Blue cells. The construct was verified by complete DNA sequencing of the cDNA insert. cRNA was prepared from linearized human wild-type (WT) and mutant KV7 channels in the pGEM-HE vector using the T7 m-Message Machine kit (Ambion, Austin, TX, USA) according to the manufacturer's instructions.
Extraction of Xenopus laevis oocytes and injection of cRNA was performed as described previously. Oocytes were kept in Modified Barth's Saline (in mM: 88 NaCl, 1 KCl, 2.4 NaHCO3, 0.41 CaCl2, 0.82 MgSO4, 0.3 Ca(NO3)2, 15 HEPES, pH 7.4 supplemented with 100 U/mL penicillin and 100 µg/mL streptomycin) at 18°C, and currents were recorded after 2-7 days. The care of Xenopus laevis and the oocyte extraction procedure were performed according to national guidelines and approved by the Danish Animal Experiments Inspectorate.
KV7 currents in Xenopus laevis oocytes were recorded using two-electrode voltage-clamp at room temperature in Ringer buffer (in mM: 115 NaCl, 2.5 KCl, 1.8 CaCl2, 0.1 MgCl2, 10 HEPES, pH 7.4) as described previously. Data was acquired using pCLAMP 10.2 software (Molecular Devices, CA, USA) and analyzed using pCLAMP 10.2 and GraphPad Prism 4.0 (GraphPad Software Inc., CA, USA). Currents were elicited from a holding potential of −80 mV by 5 s steps to potentials between −100 and +50 mV in 10 mV increments, followed by a 2 s step to −120 mV.
SMB-1 was dissolved in dimethyl sulfoxide (DMSO) to obtain a concentrated stock solution. […]
Current – voltage (I–V) relationship curves were generated by normalizing the steady-state peak current measured at potentials between −100 and +50 mV to the current measured at +50 mV in control recordings and plotting the values against the test potential.
The voltage-dependence of activation was determined from tail current analysis using the current measured immediately after the transient capacitive current after stepping to −120 mV from potentials between −100 mV and +50 mV. […] A V0.5 was calculated for each individual experiment and statistical significance was estimated by paired two-tailed Student's t-test.
Activation kinetics for KV7.4 and KV7.4-W242L was determined by fitting the traces recorded at potentials between −30 and +50 mV to a single exponential function: [drawing 3] […]
For investigation of deactivation kinetics the tail current traces recorded at −120 mV when stepping from the channels' respective ∼V0.5 were fitted to a single exponential function (Eq. 3).

SMILES: C[C@@H](c1ccc2c(c1)N(CC1CC1)CCO2)N(C)C(=O)/C=C/c1ccccc1F [SMB-1, (E)-N-[(S)-1-(4-Cyclopropylmethyl-3,4-dihydro-2H-1,4-benzoxazin-6-yl)-ethyl]-3-(2-fluoro-phenyl)-N-methyl-acrylamide]
- fraction unbound at 5 h [1]: 0.006 ± 0.004
- effect on activation kinetics ([2]; 10 µM): neither any significant effect
- remaining activity at 10 µM ([2]; 10 µM SMB-1, +50 mV, n = 5, read-out: current amplitude, % of control): 74.8 ± 4.2%
- V0.5, voltage-dependence of activation in presence of compound ([2]; 10 µM, control 5.5±4.5 mV, n = 5, p = 0.2): 4.3±4.9 mV
- τdeact, deactivation time constant in presence of compound ([2]; 10 µM, control 12.5±2.2 ms, n = 5, p = 0.5): 12.3 ± 2.2 ms
